Results on 1 compound are retold here after patent US20060247323A1, “Stabilisation of light sensitive substances” (priority 2000, published 2006).

The structures appear in SMILES notation.

The experiment has as its system cockroaches. Kind of experiment: Biological knockdown of cockroaches on glass plates sprayed with diluted d-phenothrin emulsions I, J and neat d-phenothrin. Format: in vivo. To be noted: 30 mg active pesticide/m^2. As to the method: Samples of the emulsions I and J and neat d-phenothrin are diluted in water and sprayed onto a glass plates to give a concentration of 30 mg active pesticide/m^2. The samples are tested for biological knockdown of cockroaches for 15 minute and 24 hour exposure on the plates and the effectiveness of the pesticide on the treated plates monitored periodically under light and dark conditions. The results of the tests conducted in daylight are shown in Table 3. and those conducted in the dark are shown Table 4.

The mark [1] stands for this setting: daylight, 7 days after application to plates.
[2] abbreviates: daylight, 14 days after application to plates.
The mark [3] stands for this setting: daylight, 21 days after application to plates.
The mark [4] stands for this setting: daylight, 49 days after application to plates.
Where [5] appears, read: daylight, 63 days after application to plates.
Where [6] appears, read: daylight, 91 days after application to plates.

Consider `CC(C)=CC1C(C(=O)OCc2cccc(Oc3ccccc3)c2)C1(C)C` (stereo not drawn) [phenothrin, d-phenothrin], for which the “% Kill after 15 minute exposure” value is listed as 100% (dark, 1 day after application to plates); 100% (dark, 7 days after application to plates); 100% (dark, 14 days after application to plates); 100% (dark, 21 days after application to plates); 100% (dark, 49 days after application to plates); 100% (dark, 63 days after application to plates). Besides, the “% Kill after 15 minute exposure” value is, setting by setting: (dark, 91 days after application to plates) 100%; (daylight, 1 day after application to plates) 100%; under setting [1], 0%; under setting [2], 0 (0) %; under setting [3], 10%; under setting [4], 10 (10) %. Moreover, the “% Kill after 15 minute exposure” value is, setting by setting: under setting [5], 10%; under setting [6], 0 (0) %. Moreover, the “% Kill after 24 hour exposure (in brackets)” value reads like this: under setting [1], 10%; under setting [2], 0 (0) %; under setting [3], 0%; under setting [4], 10 (10) %; under setting [5], 40%; under setting [6], 0 (0) %.
